Experiments:
Hepatotoxicity [1] = test system: Hepatotoxicity;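 for HepSE Combined Scores: combined hepatic side effect score as listed in the training data of the Drug Induced Liver Injury Prediction System (DILIps)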;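 for HepSE bilirubinemia: bilirubinemia hepatic side effect score drawn from the DILIps training data, a prediction system for drug-induced liver injury; call rule not given here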;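 for HepSE cholecystitis: Cholecystitis-related hepatic side effect score drawn from the DILIps (drug-induced liver injury prediction) training data set; call rule not given here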;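 for HepSE cirrhosis: cirrhosis hepatic side effect score taken from the DILIps (drug-induced liver injury prediction) training set; call rule not given here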;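 for HepSE hepatomegaly: hepatic side effect score for hepatomegaly, taken from the training set of the DILIps drug-induced liver injury prediction system; call rule not given here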; for HepSE liver disease: call rule not given here;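 for HepSE liver fatty: hepatic side effect score for fatty liver, taken from the DILIps training set for predicting drug-induced liver injury; call rule not given here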
Hepatotoxicity [2] = test system: Hepatotoxicity; remark: listed apart in the source;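 for HepSE Combined Scores: combined hepatic side effect score as listed in the training data of the Drug Induced Liver Injury Prediction System (DILIps)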;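 for HepSE bilirubinemia: bilirubinemia hepatic side effect score drawn from the DILIps training data, a prediction system for drug-induced liver injury; call rule not given here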;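 for HepSE cholecystitis: Cholecystitis-related hepatic side effect score drawn from the DILIps (drug-induced liver injury prediction) training data set; call rule not given here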;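 for HepSE cirrhosis: cirrhosis hepatic side effect score taken from the DILIps (drug-induced liver injury prediction) training set; call rule not given here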;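 for HepSE hepatomegaly: hepatic side effect score for hepatomegaly, taken from the training set of the DILIps drug-induced liver injury prediction system; call rule not given here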; for HepSE liver disease: call rule not given here;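 for HepSE liver fatty: hepatic side effect score for fatty liver, taken from the DILIps training set for predicting drug-induced liver injury; call rule not given here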
Hepatotoxicity [3] = test system: Hepatotoxicity; remark: listed apart in the source;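 for HepSE Combined Scores: combined hepatic side effect score as listed in the training data of the Drug Induced Liver Injury Prediction System (DILIps)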;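 for HepSE cholecystitis: Cholecystitis-related hepatic side effect score drawn from the DILIps (drug-induced liver injury prediction) training data set; call rule not given here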;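 for HepSE cirrhosis: cirrhosis hepatic side effect score taken from the DILIps (drug-induced liver injury prediction) training set; call rule not given here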;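 for HepSE hepatomegaly: hepatic side effect score for hepatomegaly, taken from the training set of the DILIps drug-induced liver injury prediction system; call rule not given here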; for HepSE liver disease: call rule not given here;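 for HepSE liver fatty: hepatic side effect score for fatty liver, taken from the DILIps training set for predicting drug-induced liver injury; call rule not given here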
Hepatotoxicity [4] = test system: Hepatotoxicity; remark: listed apart in the source;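 for HepSE Combined Scores: combined hepatic side effect score as listed in the training data of the Drug Induced Liver Injury Prediction System (DILIps)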;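 for HepSE cholecystitis: Cholecystitis-related hepatic side effect score drawn from the DILIps (drug-induced liver injury prediction) training data set; call rule not given here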;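 for HepSE cirrhosis: cirrhosis hepatic side effect score taken from the DILIps (drug-induced liver injury prediction) training set; call rule not given here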;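 for HepSE hepatomegaly: hepatic side effect score for hepatomegaly, taken from the training set of the DILIps drug-induced liver injury prediction system; call rule not given here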; for HepSE liver disease: call rule not given here;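 for HepSE liver fatty: hepatic side effect score for fatty liver, taken from the DILIps training set for predicting drug-induced liver injury; call rule not given here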
Hepatotoxicity [5] = test system: Hepatotoxicity; remark: listed apart in the source; for HepSE liver disease: call rule not given here
Hepatotoxicity [6] = test system: Hepatotoxicity; remark: listed apart in the source; for HepSE liver disease: call rule not given here
Hepatotoxicity [7] = test system: Hepatotoxicity; remark: listed apart in the source
Hepatotoxicity [8] = test system: Hepatotoxicity; remark: listed apart in the source
Hepatotoxicity [9] = test system: Hepatotoxicity; remark: listed apart in the source
Hepatotoxicity [10] = test system: Hepatotoxicity; remark: listed apart in the source
Hepatotoxicity [11] = test system: Hepatotoxicity; remark: listed apart in the source
Hepatotoxicity [12] = test system: Hepatotoxicity; remark: listed apart in the source
Hepatotoxicity [13] = test system: Hepatotoxicity; remark: listed apart in the source
Hepatotoxicity [14] = test system: Hepatotoxicity; remark: listed apart in the source

| Molecule | HepSE_liver fatty (Hepatotoxicity [1]) | HepSE_liver disease (Hepatotoxicity [2]) | HepSE_cholecystitis (Hepatotoxicity [3]) | HepSE_cholelithiasis (Hepatotoxicity [4]) | HepSE_Combined Scores (Hepatotoxicity [5]) | HepSE_cirrhosis (Hepatotoxicity [6]) | HepSE_hepatomegaly (Hepatotoxicity [7]) | HepSE_bilirubinemia (Hepatotoxicity [8]) | HepSE_liver function tests abnormal (Hepatotoxicity [9]) | HepSE_jaundice (Hepatotoxicity [10]) | HepSE_hepatic necrosis (Hepatotoxicity [11]) | HepSE_hepatitis (Hepatotoxicity [12]) | HepSE_hepatic failure (Hepatotoxicity [13]) | HepSE_elevated liver function tests (Hepatotoxicity [14]) | further results |
| --- | --- | --- | --- | --- | --- | --- | --- | --- | --- | --- | --- | --- | --- | --- | --- |
| Nc1nnc(-c2cccc(Cl)c2Cl)c(N)n1 [LAMOTRIGINE] | 0 | 0 | 0 | 0 | 3 | 0 | 0 | 1 | 1 | 0 | 0 | 1 | 0 | 0 |  |
| C#C[C@]1(O)CC[C@H]2[C@@H]3CCC4=CC(=O)CC[C@@H]4[C@H]3CC[C@@]21CC [LEVONORGESTREL] |  |  |  |  |  |  |  |  |  |  |  |  |  |  | HepSE_liver fatty (Hepatotoxicity [1]; Liver): 0; HepSE_liver disease (Hepatotoxicity [2]; Liver): 0; HepSE_cholecystitis (Hepatotoxicity [3]; Liver): 0; HepSE_cholelithiasis (Hepatotoxicity [4]; Liver): 0; HepSE_Combined Scores (Hepatotoxicity [5]; Liver): 0; HepSE_cirrhosis (Hepatotoxicity [6]; Liver): 0; HepSE_hepatomegaly (Hepatotoxicity [7]; Liver): 0; HepSE_bilirubinemia (Hepatotoxicity [8]; Liver): 0; HepSE_liver function tests abnormal (Hepatotoxicity [9]; Liver): 0; HepSE_jaundice (Hepatotoxicity [10]; Liver): 0; HepSE_hepatic necrosis (Hepatotoxicity [11]; Liver): 0; HepSE_hepatitis (Hepatotoxicity [12]; Liver): 0; HepSE_hepatic failure (Hepatotoxicity [13]; Liver): 0; HepSE_elevated liver function tests (Hepatotoxicity [14]; Liver): 0 |
| CC(=O)CCCCn1c(=O)c2c(ncn2C)n(C)c1=O [PENTOXIFYLLINE] | 0 | 0 | 1 | 0 | 3 | 0 | 0 | 0 | 0 | 1 | 0 | 1 | 0 | 0 |  |
| CC(C)(C)NCC(O)COc1cccc2c1CC(O)C(O)C2 (configuration not stated) [NADOLOL] | 0 | 0 | 0 | 0 | 0 | 0 | 0 | 0 | 0 | 0 | 0 | 0 | 0 | 0 |  |
| CCCCCCCCCCC[C@@H](C[C@@H]1OC(=O)[C@H]1CCCCCC)OC(=O)[C@H](CC(C)C)NC=O [ORLISTAT] | 0 | 0 | 0 | 0 | 1 | 0 | 0 | 0 | 0 | 0 | 0 | 1 | 0 | 0 |  |
| Nc1ccc(S(=O)(=O)c2ccc(N)cc2)cc1 [DAPSONE] |  |  |  |  |  |  |  |  |  |  |  |  |  |  | HepSE_liver fatty (Hepatotoxicity [1]; Liver): 0; HepSE_liver disease (Hepatotoxicity [2]; Liver): 0; HepSE_cholecystitis (Hepatotoxicity [3]; Liver): 0; HepSE_cholelithiasis (Hepatotoxicity [4]; Liver): 0; HepSE_Combined Scores (Hepatotoxicity [5]; Liver): 0; HepSE_cirrhosis (Hepatotoxicity [6]; Liver): 0; HepSE_hepatomegaly (Hepatotoxicity [7]; Liver): 0; HepSE_bilirubinemia (Hepatotoxicity [8]; Liver): 0; HepSE_liver function tests abnormal (Hepatotoxicity [9]; Liver): 0; HepSE_jaundice (Hepatotoxicity [10]; Liver): 0; HepSE_hepatic necrosis (Hepatotoxicity [11]; Liver): 0; HepSE_hepatitis (Hepatotoxicity [12]; Liver): 0; HepSE_hepatic failure (Hepatotoxicity [13]; Liver): 0; HepSE_elevated liver function tests (Hepatotoxicity [14]; Liver): 0 |
| CC(C(=O)O)c1ccc(C(=O)c2cccs2)cc1 (configuration not stated) [SUPROFEN] | 0 | 0 | 0 | 0 | 0 | 0 | 0 | 0 | 0 | 0 | 0 | 0 | 0 | 0 |  |
| OCCN1C[C@H](O)[C@@H](O)[C@H](O)[C@H]1CO [MIGLITOL] | 0 | 0 | 0 | 0 | 0 | 0 | 0 | 0 | 0 | 0 | 0 | 0 | 0 | 0 |  |
| C=CCC1(C(C)C#CCC)C(=O)N=C(O)N(C)C1=O (configuration not stated) [METHOHEXITAL] | 0 | 0 | 0 | 0 | 1 | 0 | 0 | 0 | 1 | 0 | 0 | 0 | 0 | 0 |  |
| CC(C)Cn1cnc2c(N)nc3ccccc3c21 [IMIQUIMOD] | 0 | 0 | 0 | 0 | 0 | 0 | 0 | 0 | 0 | 0 | 0 | 0 | 0 | 0 |  |
| O=C(CCCCC(=O)Nc1c(I)cc(I)c(C(=O)O)c1I)Nc1c(I)cc(I)c(C(=O)O)c1I [IODIPAMIDE] | 0 | 0 | 0 | 0 | 0 | 0 | 0 | 0 | 0 | 0 | 0 | 0 | 0 | 0 |  |
| O=C1c2c(O)ccc(O)c2C(=O)c2c(NCCNCCO)ccc(NCCNCCO)c21 [MITOXANTRONE] | 0 | 0 | 0 | 0 | 2 | 0 | 0 | 0 | 0 | 1 | 0 | 1 | 0 | 0 |  |
| SEVELAMER | 0 | 0 | 0 | 0 | 0 | 0 | 0 | 0 | 0 | 0 | 0 | 0 | 0 | 0 |  |
| OC[C@@H](O)[C@@H](O)[C@H](O)[C@H](O)CO [MANNITOL] | 0 | 0 | 0 | 0 | 0 | 0 | 0 | 0 | 0 | 0 | 0 | 0 | 0 | 0 |  |
| C[C@]12CCC(=O)C=C1CC[C@@H]1[C@@H]2[C@@H](O)C[C@@]2(C)[C@H]1CC[C@]2(O)C(=O)CO [HYDROCORTISONE] | 0 | 0 | 0 | 0 | 1 | 0 | 1 | 0 | 0 | 0 | 0 | 0 | 0 | 0 |  |
| GENTAMICIN | 0 | 0 | 0 | 0 | 1 | 0 | 1 | 0 | 0 | 0 | 0 | 0 | 0 | 0 |  |
| O=C(NCC(O)CO)c1c(I)c(C(=O)NCC(O)CO)c(I)c(N(CCO)C(=O)CO)c1I (configuration not stated) [IOVERSOL] | 0 | 0 | 0 | 0 | 0 | 0 | 0 | 0 | 0 | 0 | 0 | 0 | 0 | 0 |  |
| COC(=O)[C@H]1[C@H]2C[C@@H]3c4[nH]c5cc(OC)ccc5c4CCN3C[C@H]2C[C@@H](OC(=O)c2cc(OC)c(OC)c(OC)c2)[C@@H]1OC [RESERPINE] | 0 | 0 | 0 | 0 | 0 | 0 | 0 | 0 | 0 | 0 | 0 | 0 | 0 | 0 |  |

Reference: ChEMBL document CHEMBL1909294, “Translating clinical findings into knowledge in drug safety evaluation--drug induced liver injury prediction system (DILIps)” (PLoS Comput Biol, 2011)
